Laboratory results from the NIST ThermoML archive (doi:10.1021/je049960h).
± gives the expanded uncertainty stated by the source.

Test: xn = mol fraction of the nth substance listed
Conditions: 101.3 kPa, Liquid; for viscosity: Capillary tube (Ostwald / Ubbelohde) method; for mass density: Pycnometric method; for thermal conductivity: Hot wire method

CC(O)CO (stereo unspecified) [1,2-propanediol] + O
Conditions | mass density [kg/m3] | thermal conductivity [W/m/K] | viscosity [mPa·s]
296.65 K, x1 = 0.25 | 1040 ± 2 | – | 7.39 ± 0.15
296.8 K, x1 = 0.75 | 1038 ± 2 | – | 32.4 ± 0.7
297.05 K, x1 = 0.5 | 1042 ± 2 | – | 17.5 ± 0.4
298.5 K, x1 = 0.75 | – | 0.212 ± 0.004 | –
298.9 K, x1 = 0.5 | – | 0.243 ± 0.005 | –
299.6 K, x1 = 0.25 | – | 0.322 ± 0.007 | –
313.05 K, x1 = 0.25 | 1028 ± 2 | – | 3.9 ± 0.08
313.05 K, x1 = 0.5 | 1029 ± 2 | – | 8.47 ± 0.18
313.05 K, x1 = 0.75 | 1026 ± 2 | – | 14.4 ± 0.3
322.1 K, x1 = 0.25 | – | 0.337 ± 0.007 | –
323.7 K, x1 = 0.75 | – | 0.214 ± 0.004 | –
324.2 K, x1 = 0.5 | – | 0.25 ± 0.005 | –
333.1 K, x1 = 0.25 | 1013 ± 2 | – | 2.12 ± 0.04
333.1 K, x1 = 0.5 | 1013 ± 2 | – | 4.14 ± 0.09
333.1 K, x1 = 0.75 | 1010 ± 2 | – | 6.46 ± 0.14
347.2 K, x1 = 0.25 | – | 0.348 ± 0.007 | –
348.2 K, x1 = 0.75 | – | 0.215 ± 0.004 | –
349.1 K, x1 = 0.5 | – | 0.254 ± 0.005 | –
353.05 K, x1 = 0.25 | 996.5 ± 2 | – | 1.32 ± 0.03
353.05 K, x1 = 0.5 | 996.8 ± 2 | – | –
353.05 K, x1 = 0.75 | 993.8 ± 2 | – | 3.45 ± 0.07
353.1 K, x1 = 0.5 | – | – | 2.36 ± 0.05
363.3 K, x1 = 0.25 | 988 ± 2 | – | 1.09 ± 0.02
363.35 K, x1 = 0.75 | 985.1 ± 2 | – | 2.66 ± 0.06
363.4 K, x1 = 0.5 | 987.9 ± 2 | – | 1.84 ± 0.04
372.1 K, x1 = 0.25 | – | 0.353 ± 0.007 | –
372.1 K, x1 = 0.5 | – | 0.255 ± 0.005 | –
372.8 K, x1 = 0.75 | – | 0.215 ± 0.004 | –
373.45 K, x1 = 0.25 | 979.3 ± 2 | – | 0.915 ± 0.019
378.35 K, x1 = 0.75 | 971.6 ± 2 | – | 1.87 ± 0.04
381.55 K, x1 = 0.25 | 971.3 ± 2 | – | –
383.5 K, x1 = 0.5 | 970.3 ± 2 | – | 1.22 ± 0.03
384.15 K, x1 = 0.25 | – | – | 0.778 ± 0.016
388.5 K, x1 = 0.75 | 963.2 ± 2 | – | 1.52 ± 0.03
390.55 K, x1 = 0.25 | 963.4 ± 2 | – | –
394.55 K, x1 = 0.25 | – | – | 0.657 ± 0.014
395.75 K, x1 = 0.5 | 958.1 ± 2 | – | –
396 K, x1 = 0.75 | – | 0.214 ± 0.004 | –
396.4 K, x1 = 0.25 | – | 0.353 ± 0.007 | –
397.1 K, x1 = 0.5 | – | 0.255 ± 0.005 | –
398.3 K, x1 = 0.75 | 954.2 ± 2 | – | 1.27 ± 0.03
398.75 K, x1 = 0.5 | – | – | 0.952 ± 0.02
407.45 K, x1 = 0.5 | 947.1 ± 2 | – | –
407.75 K, x1 = 0.25 | 947.5 ± 2 | – | –
408.15 K, x1 = 0.75 | 944.7 ± 2 | – | 1.08 ± 0.02
411.45 K, x1 = 0.5 | – | – | 0.793 ± 0.017
411.75 K, x1 = 0.25 | – | – | 0.525 ± 0.011
411.75 K, x1 = 0.75 | 940.7 ± 2 | – | –
420.2 K, x1 = 0.5 | – | 0.253 ± 0.005 | –
420.4 K, x1 = 0.25 | – | 0.347 ± 0.007 | –
420.8 K, x1 = 0.75 | – | 0.212 ± 0.004 | –
424.55 K, x1 = 0.25 | 930.2 ± 1.9 | – | –
424.95 K, x1 = 0.5 | 929.6 ± 1.9 | – | –
428.15 K, x1 = 0.75 | 924.7 ± 1.9 | – | –
428.95 K, x1 = 0.5 | – | – | 0.618 ± 0.013
429.55 K, x1 = 0.25 | – | – | 0.426 ± 0.009
439.95 K, x1 = 0.5 | 914.7 ± 1.9 | – | –
440.4 K, x1 = 0.25 | – | 0.338 ± 0.007 | –
440.8 K, x1 = 0.5 | – | 0.249 ± 0.005 | –
441.45 K, x1 = 0.75 | 912.7 ± 1.9 | – | –
442 K, x1 = 0.75 | – | 0.21 ± 0.004 | –
443.95 K, x1 = 0.5 | – | – | 0.517 ± 0.011
444.55 K, x1 = 0.25 | 908.3 ± 1.9 | – | –
449.55 K, x1 = 0.25 | – | – | 0.344 ± 0.007

CC(O)COC(C)COC(C)CO (stereo unspecified) [2-[2-(2-hydroxypropoxy)propoxy]-1-propanol] + O
Conditions | mass density [kg/m3] | thermal conductivity [W/m/K] | viscosity [mPa·s]
294.8 K, x1 = 0.5 | 1028 ± 2 | – | 66.6 ± 1.5
295.35 K, x1 = 0.75 | 1021 ± 2 | – | 71.2 ± 1.7
295.4 K, x1 = 0.25 | 1037 ± 2 | – | 36.7 ± 0.8
297.3 K, x1 = 0.25 | – | 0.215 ± 0.004 | –
297.7 K, x1 = 0.75 | – | 0.157 ± 0.003 | –
298.1 K, x1 = 0.5 | – | 0.174 ± 0.004 | –
313.05 K, x1 = 0.25 | 1023 ± 2 | – | 14.2 ± 0.3
313.05 K, x1 = 0.5 | 1013 ± 2 | – | 22.4 ± 0.5
313.05 K, x1 = 0.75 | 1007 ± 2 | – | 24.6 ± 0.6
324.3 K, x1 = 0.25 | – | 0.22 ± 0.005 | –
325.2 K, x1 = 0.75 | – | 0.156 ± 0.003 | –
325.8 K, x1 = 0.5 | – | 0.174 ± 0.004 | –
333.05 K, x1 = 0.25 | 1006 ± 2 | – | 6.27 ± 0.13
333.1 K, x1 = 0.5 | 996.8 ± 2.2 | – | 9.12 ± 0.2
333.1 K, x1 = 0.75 | 990.4 ± 2.3 | – | 9.92 ± 0.24
349.1 K, x1 = 0.75 | – | 0.156 ± 0.003 | –
349.7 K, x1 = 0.25 | – | 0.223 ± 0.005 | –
350.2 K, x1 = 0.5 | – | 0.175 ± 0.004 | –
353.05 K, x1 = 0.25 | 989 ± 2.1 | – | 3.36 ± 0.07
353.05 K, x1 = 0.5 | 979.9 ± 2.1 | – | 4.5 ± 0.1
353.1 K, x1 = 0.75 | 973.7 ± 2.3 | – | 4.93 ± 0.12
368.25 K, x1 = 0.25 | 975.3 ± 2 | – | 2.3 ± 0.05
368.25 K, x1 = 0.5 | 966.8 ± 2.1 | – | 2.96 ± 0.07
368.25 K, x1 = 0.75 | 960.5 ± 2.3 | – | 3.21 ± 0.08
374.1 K, x1 = 0.25 | – | 0.224 ± 0.005 | –
375.1 K, x1 = 0.5 | – | 0.172 ± 0.004 | –
375.5 K, x1 = 0.75 | – | 0.155 ± 0.003 | –
378.15 K, x1 = 0.25 | 966.7 ± 2 | – | 1.84 ± 0.04
378.5 K, x1 = 0.5 | 957.4 ± 2.1 | – | 2.32 ± 0.05
378.55 K, x1 = 0.75 | 951.3 ± 2.2 | – | 2.53 ± 0.06
388.4 K, x1 = 0.5 | 947.8 ± 2.1 | – | 1.88 ± 0.04
388.4 K, x1 = 0.75 | 942.4 ± 2.2 | – | 2.03 ± 0.05
393.05 K, x1 = 0.25 | 953 ± 2 | – | –
394.05 K, x1 = 0.5 | 944 ± 2.1 | – | –
394.55 K, x1 = 0.25 | – | – | 1.35 ± 0.03
395.15 K, x1 = 0.5 | – | – | 1.67 ± 0.04
398.35 K, x1 = 0.75 | 933.3 ± 2.2 | – | 1.66 ± 0.04
398.9 K, x1 = 0.25 | – | 0.222 ± 0.005 | –
399 K, x1 = 0.5 | – | 0.172 ± 0.004 | –
399.4 K, x1 = 0.75 | – | 0.152 ± 0.003 | –
408.3 K, x1 = 0.75 | 924.3 ± 2.2 | – | 1.44 ± 0.03
408.65 K, x1 = 0.5 | 930.6 ± 2.1 | – | –
409.05 K, x1 = 0.25 | 936.6 ± 2 | – | –
411.65 K, x1 = 0.5 | – | – | 1.26 ± 0.03
412.05 K, x1 = 0.25 | – | – | 1.01 ± 0.02
412.45 K, x1 = 0.75 | – | – | 1.31 ± 0.03
414.15 K, x1 = 0.75 | 918.6 ± 2.2 | – | –
422.5 K, x1 = 0.75 | – | 0.15 ± 0.003 | –
423 K, x1 = 0.25 | – | 0.22 ± 0.005 | –
424.5 K, x1 = 0.5 | – | 0.168 ± 0.004 | –
426.65 K, x1 = 0.25 | 918.9 ± 1.9 | – | –
426.75 K, x1 = 0.5 | 913.2 ± 2 | – | –
428.25 K, x1 = 0.75 | – | – | 1.02 ± 0.02
429.25 K, x1 = 0.75 | 904.7 ± 2.2 | – | –
429.65 K, x1 = 0.25 | – | – | 0.785 ± 0.017
429.75 K, x1 = 0.5 | – | – | 0.952 ± 0.021
445 K, x1 = 0.75 | 889.5 ± 2.1 | – | –
446.15 K, x1 = 0.25 | 897.8 ± 1.9 | – | –
446.55 K, x1 = 0.75 | – | – | 0.791 ± 0.019
446.85 K, x1 = 0.5 | 892.5 ± 2 | – | –
448.2 K, x1 = 0.25 | – | 0.213 ± 0.004 | –
448.3 K, x1 = 0.5 | – | 0.164 ± 0.003 | –
449 K, x1 = 0.75 | – | 0.144 ± 0.003 | –
449.15 K, x1 = 0.25 | – | – | 0.615 ± 0.013
449.85 K, x1 = 0.5 | – | – | 0.738 ± 0.016
